For series [1], the target named is T1, hLAT1/4F2hc (Homo sapiens, UniProt Q01650).
T1 construct: Invitrogen (host cells)
The experiment in a line: cis-inhibition of [14C]-L-leucine uptake in HEK-hLAT1 cells. Particulars: HEK-hLAT1 cells, compounds 1-12. The series is classed as cell-based. How it is done:
(§1) In the following experiments, the MCF-7, HEK-hLAT1, and HEK-MOCK cells were cultured, seeded, and preincubated as described above. The HBSS was removed, and the ability of the compounds to inhibit the uptake of a known LAT1 substrate, [^14C]-L-leucine (PerkinElmer, Waltham, MA, USA), was studied by incubating the cells at RT for 10 min in uptake buffer pH 7.4 (250 μL) containing 0.76 μM (0.1 mCi/mL) of [^14C]-L-leucine and 0.025–1800 μM of the studied compound (or HBSS as blank). After incubation, the reaction was stopped with ice-cold HBSS, and the cells were washed two times with ice-cold HBSS. The cells were then lysed with 250 μL of 0.1 M sodium hydroxide, the lysate was mixed with 1.0 mL of Emulsifier safe cocktail (PerkinElmer, Waltham, MA, USA), and the radioactivity was measured with a liquid scintillation counter (MicroBeta^2 counter, PerkinElmer, Waltham, MA, USA). The inhibition of [^14C]-L-leucine in the presence of the studied compounds as compared to the control (HBSS) was calculated as percentages (%).
Using the stably hLAT1/4F2hc expressing cell line, the compounds’ inhibitory efficiencies and uptake kinetics were determined via the cis-inhibition assay and uptake studies, respectively. (Table 1) Cis-inhibition is based on the competition between the ligand and LAT1 substrate [^14C]-L-leucine that results in inhibition of substrate uptake. The competitive uptake with L-leucine is reported as the IC50 value of L-leucine uptake and extent as inhibition percentage (%) at a given concentration.

A short description of series [2]: Conversion of ester conjugate in 0.1 M NaOH (sample lysis). The series is classed as physicochemical. How it is done: For compound 9, the LLOQ was 0.05 nM with good linearity (R^2 > 0.983).[34] For the compounds 1, 7, and 12, the LLOQ was 12.5 nM, with a linear range of 12.5–2500 nM, and for 11, the LLOQ was 6.3 nM, over the range of 6.3–6250 nM.[28] For 10, the calibration curve was linear with a LLOQ of 1 ng/mL (accuracy ±15%), respectively.[26] For compounds 2–5, the LLOQ was 5.0 nM.[29] Methods were also selective, accurate (RSD < 15%), and precise (RSD < 15%) over the range of 5.0–1000 nM for 5 and for compounds 2–4 5.0–2000 nM. For compound 6, the LLOQ was 10 pmol/g.[33] Ketoprofen was linear with a range of 0.25–25 ng/mL, while compound 8 was completely converted to ketoprofen in 0.1 M NaOH within 30 min.

Series [3] has as its target T2, LAT1 in MCF-7 human breast cancer cells (Homo sapiens, UniProt Q01650).
T2 construct: wild-type MCF-7 human breast cancer cell line; endogenous in cells; host or cells: MCF-7 human breast cancer cells (wild type)
The experiment in a line: cis-inhibition of [14C]-L-leucine uptake in MCF-7 cells. The class given is cell-based. Here is the method:
Cells were cultured in DMEM (Gibco, ThermoFisher Scientific, Waltham, MA, USA) supplemented with L-glutamine (2 mM; ThermoFisher Scientific, Waltham, MA, USA), heat-inactivated fetal bovine serum (10%; Gibco, ThermoFisher Scientific, Waltham, MA, USA), penicillin (50 U/mL)-streptomycin (50 μg/mL) solution (ThermoFisher Scientific, Waltham, MA, USA), and hygromycin B solution (100 μg/mL) for transfected cells. HEK-hLAT1 and HEK-MOCK cells (passages 7–20) were seeded at a density of 5 × 10^5 cells/wells onto 24-well plates. The cells were used in the characterization, competition, and uptake studies 2 days after seeding. MCF-7 cells were seeded at a density of 1 × 10^5 and were used in the competition studies 1 day after seeding. The culture medium was removed, and the cells were washed with prewarmed Hanks’ balanced salt solution (HBSS; 125 mM NaCl, 4.8 mM KCl, 1.2 mM MgSO4, 1.2 mM KH2PO4, 1.3 mM CaCl2, 5.6 mM D-glucose, and 25 mM HEPES, pH 7.4). The cells were then incubated with HBSS at 37 °C for 10 min before the experiments.
as §1

The record followed here is paper PMC9811466, “Structural Features Affecting the Interactions and Transportability of LAT1-Targeted Phenylalanine Drug Conjugates” (Molecular Pharmaceutics, 2022).

T1 sequence (Q01650 whole entry): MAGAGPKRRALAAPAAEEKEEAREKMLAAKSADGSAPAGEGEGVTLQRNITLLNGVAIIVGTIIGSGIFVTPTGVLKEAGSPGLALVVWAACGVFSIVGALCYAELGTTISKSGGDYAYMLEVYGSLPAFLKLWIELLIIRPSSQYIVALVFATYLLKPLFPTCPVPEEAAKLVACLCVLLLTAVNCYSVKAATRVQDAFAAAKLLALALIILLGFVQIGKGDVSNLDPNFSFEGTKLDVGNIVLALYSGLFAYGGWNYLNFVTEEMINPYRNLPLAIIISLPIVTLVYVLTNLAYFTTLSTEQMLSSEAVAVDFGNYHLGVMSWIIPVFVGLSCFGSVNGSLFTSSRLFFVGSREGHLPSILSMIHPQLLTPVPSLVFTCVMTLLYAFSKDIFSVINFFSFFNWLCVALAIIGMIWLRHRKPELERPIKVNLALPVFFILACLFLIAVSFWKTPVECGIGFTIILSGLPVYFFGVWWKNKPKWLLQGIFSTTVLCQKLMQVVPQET
T1 sequence (P08195 102-630 partner): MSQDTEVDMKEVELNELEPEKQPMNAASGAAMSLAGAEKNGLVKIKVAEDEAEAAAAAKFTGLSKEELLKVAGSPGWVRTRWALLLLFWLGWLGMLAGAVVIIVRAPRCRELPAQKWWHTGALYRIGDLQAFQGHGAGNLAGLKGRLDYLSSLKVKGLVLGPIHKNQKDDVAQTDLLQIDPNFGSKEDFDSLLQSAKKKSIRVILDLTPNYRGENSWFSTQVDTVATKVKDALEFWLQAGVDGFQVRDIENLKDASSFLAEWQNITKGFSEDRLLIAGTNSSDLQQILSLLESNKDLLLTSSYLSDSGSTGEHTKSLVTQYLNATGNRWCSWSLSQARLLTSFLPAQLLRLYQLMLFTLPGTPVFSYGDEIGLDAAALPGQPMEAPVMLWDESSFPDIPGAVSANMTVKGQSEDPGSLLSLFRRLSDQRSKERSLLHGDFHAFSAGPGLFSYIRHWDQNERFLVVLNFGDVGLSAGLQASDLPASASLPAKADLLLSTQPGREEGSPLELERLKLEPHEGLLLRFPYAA
T2 sequence (Q01650 whole entry): as the sequence (Q01650 whole entry) above
T2 sequence (P08195 102-630 partner): as the sequence (P08195 102-630 partner) above

In general, inhibition refers to the share of the control response that was lost under treatment. As a reminder, the IC50 is the concentration needed to halve the response being measured. For the compound `CC(C(=O)Oc1cccc(C[C@H](N)C(=O)O)c1)c1cccc(C(=O)c2ccccc2)c1` (some centres unmarked) [Compound 8], the inhibition at 50 µM in series [1] (50 μM compound, read-out: [14C]-L-Leucine uptake inhibition % (50μM)) was 24 ± 2.3%; in series [3] (MCF7, MCF-7 cells, 50 μM compound) it was 83 ± 0.9%. Further, the IC50 is above 100000 nM in series [1] (read-out: IC50 of [14C]-L-leucine uptake) and 400 ± 80 nM in series [3] (MCF-7 cells). In addition, the “time to complete conversion to ketoprofen” value in series [2] is given as at most 30 min.
